Measurements reported in publication PMC7311950, “Potent Tetrahydroquinolone Eliminates Apicomplexan Parasites” (Frontiers in Cellular and Infection Microbiology, 2020).
Read-outs that look alike come from different tables or passages of the source.

What was measured:
[1] = test system: T. gondii RH-YFP tachyzoites; experiment: In vitro challenge assay, RH strain YFP tachyzoites in HFF; type: cell-based; conditions: Toxoplasma gondii
[2] = test system: T. gondii mitochondrial membrane potential; experiment: T. gondii mitochondrial membrane potential, safranine method; type: cell-based, Toxoplasma gondii; conditions: permeabilized T. gondii tachyzoites, safranin O
Description: The mitochondrial membrane potential was measured by the safranine method according to Vercesi et al. ([1998]). Freshly egressed T. gondii tachyzoites were filtered and washed twice with intracellular buffer (125 mM sucrose, 65 mM KCl, 10 mM HEPES-KOH buffer, pH 7.2, 1 mM MgCl2, and 2.5 mM potassium phosphate). After washing, the parasites were resuspended in the same buffer at 10^9/mL. An aliquot of 50 μL of this suspension was added to a cuvette containing Safranin O, 2.5 μM and Succinate 1 mM in final volume of 2 mL of the intracellular buffer. The fluorescence was measured with a Hitachi 7000 spectrofluorometer with settings Ex. 495/Em. 586. Once the baseline fluorescence was stable, 30 μM digitonin was added to permeabilize the parasites. Eighty five seconds after permeabilization, the THQ derivatives, dissolved in DMSO, were added. Five micromolars of FCCP (Carbonyl cyanide-4-(trifluoromethoxy) phenylhydrazone) was used as an uncoupler reference for calculations and its effect was considered 100%. We used similar conditions for measuring the mitochondrial membrane potential of mammalian cells with the following changes: the mammalian cells were resuspended at 10^8/mL. We also used 50 μL of this suspension for each experiment in a total volume of 2 mL. The substrate used for mammalian cells was 5 mM glutamate and 5 mM malate. A higher concentration of digitonin (50 μM) was used to permeabilize the mammalian cells. The compounds were added at ~400 s after permeabilization. Each experiment was repeated at least three times in duplicates. Statistical analysis, unpaired student t-test, was performed using GraphPad Prism 8.0 (GraphPad Software, Inc., San Diego, CA).
Mitochondrial membrane potential measurements were performed with permeabilized T. gondii tachyzoites in suspension using safranin O, which loads into polarized membranes [see section Materials and Methods in the Supplemental Materials (Vercesi et al., [1998])]. T. gondii tachyzoites were permeabilized with digitonin to allow the mitochondrial substrate succinate to cross the membrane and energize the mitochondrion. The fluorescence of safranin O, which loads into energized mitochondria was used to measure the membrane potential. The energized state of the mitochondrion is observed by a decrease in fluorescence (Figures 3A,C,E). Trifluoromethoxy carbonylcyanide phenylhydrazone (FCCP) was used to depolarize the membrane, which is observed as an increase in fluorescence (Figures 3A,B). JAG21 depolarized the membrane potential even at concentrations as low as 2 nM (Figures 3C,D). JAG21 and Atovaquone had similar effects on the mitochondrial membrane potential (Figure 3D). […]

HepG2 cells = experiment: Cytotoxicity with HepG2 cells; type: cell-based; conditions: Homo sapiens
Description: Toxicity studies also were performed with HepG2 cells (human liver cancer immortal cell line derived from the liver tissue of a […]) in parallel with the studies of P. falciparum, with inhibitors in vitro, as described in McPhillie et al. ([2016]).

[3] = RH-YFP tachyzoites in HFF, Figure 1A, read-out: Tachy IC50
[4] = T. gondii tachyzoites, initial library, read-out: IC50
[5] = dose response testing, read-out: HEP G2 IC50

SMILES | IC50 [1, 3] [nM] | IC50 [1, 4] [nM] | IC90 ([1]; supplement summary) [nM] | concentration that depolarized the mitochondrial membrane potential [2] [nM] | IC50 (HepG2 cells; [5]) [nM] | IC50 (HepG2 cells; supplement summary, read-out: IC50, human HepG2 cells) [nM]
Cc1[nH]c2c(c(=O)c1-c1ccc(Oc3ccc(OC(F)(F)F)cc3)cc1)CCCC2 [JAG21, 2-Methyl-3-(4-(4-(Trifluoromethoxy)Phenoxy)Phenyl)-5,6,7,8-Tetrahydroquinolin-4-One] | 120 | 55 | < 50 | ≤ 2 | 17700 | > 17000
Cc1[nH]c2c(c(=O)c1-c1ccc(Oc3ccc(Cl)cc3)cc1)CCCC2 [JAG50] | 85 | 33 | – | ≥ 200 | 7100 | –
